The numbers were not newly measured in article PMC10761933, “Acquired and intrinsic resistance to vemurafenib in BRAF^V600E ‐driven melanoma brain metastases” (FEBS Open Bio, 2023), which cites them from elsewhere.

The conditions of series [1]: mice; stated without reference; cited from earlier work.
For series [2] the following is noted: WT mice; cited from earlier work.
The subject of series [3] is melanoma brain metastases. Particulars: MBM patients, treatment alone; cited from earlier work.
The next series deals with A375 cells. To be noted: read-out: IC50 against A375 cells; cited from earlier work.

Each structure is given as a SMILES string. pIC50: −log10 of the molar value.

Regarding `COc1cc2c(cc1OC)CN(CCc1ccc(NC(=O)c3cccc4c(=O)c5cccc(OC)c5[nH]c34)cc1)CC2` [elacridar], the “t max of oral elacridar” value in series [1] is approximately 4 h.

Consider `CC(C)(C)c1nc(-c2cccc(NS(=O)(=O)c3c(F)cccc3F)c2F)c(-c2ccnc(N)n2)s1` [dabrafenib], for which the “brain–plasma ratio” value in series [2] is given as “approximately 0.1”. Also, the median overall survival in series [3] was 7 months. The pIC50 (usually −log10 of the IC50, conventionally taken in molar units) in the series with A375 cells was 8.40.

Take `COC(=O)N[C@@H](C)CNc1nccc(-c2cn(C(C)C)nc2-c2cc(Cl)cc(NS(C)(=O)=O)c2F)n1` [encorafenib]: the “brain–plasma ratio” value in series [2] is on record as “roughly 0.004”. Also, the pIC50 with A375 cells was 8.40.
